In the NIST ThermoML archive (doi:10.1021/je801009z):
Several values for one entry are separate records, joined by “and”; a condition that tells them apart may be missing. Equal values may be shown once. ± gives the expanded uncertainty stated by the source.

Conditions: Vibrating tube method

| Compound | mass density (288 K, 19600 kPa, Liquid) [kg/m3] | mass density (298 K, 19600 kPa, Liquid) [kg/m3] | mass density (308 K, 5000 kPa, Liquid) [kg/m3] | mass density (308 K, 10100 kPa, Liquid) [kg/m3] | mass density (308 K, 15400 kPa, Liquid) [kg/m3] | mass density (308 K, 19600 kPa, Liquid) | mass density (308 K, 23700 kPa, Liquid) [kg/m3] | mass density (318 K, 19600 kPa, Liquid) [kg/m3] | mass density (328 K, 19600 kPa, Liquid) [kg/m3] | mass density (308 K, 20000 kPa, Fluid (supercritical or subcritical phases)) [kg/m3] | mass density (313 K, 10000 kPa, Fluid (supercritical or subcritical phases)) [kg/m3] | mass density (313 K, 15000 kPa, Fluid (supercritical or subcritical phases)) [kg/m3] | mass density (313 K, 20000 kPa, Fluid (supercritical or subcritical phases)) | mass density (313 K, 25000 kPa, Fluid (supercritical or subcritical phases)) [kg/m3] | mass density (313 K, 36000 kPa, Fluid (supercritical or subcritical phases)) [kg/m3] | mass density (318 K, 20000 kPa, Fluid (supercritical or subcritical phases)) [kg/m3] | mass density (323 K, 20000 kPa, Fluid (supercritical or subcritical phases)) [kg/m3] | mass density (328 K, 20000 kPa, Fluid (supercritical or subcritical phases)) [kg/m3] | mass density (333 K, 20000 kPa, Fluid (supercritical or subcritical phases)) [kg/m3] |
| --- | --- | --- | --- | --- | --- | --- | --- | --- | --- | --- | --- | --- | --- | --- | --- | --- | --- | --- | --- |
| FCC(F)(F)F [1,1,1,2-tetrafluoroethane] | 1290 ± 120 | 1270 ± 60 | 1150 ± 100 | 1180 ± 60 | 1210 ± 10 | 1240 ± 10 kg/m3 and 1240 ± 60 kg/m3 | 1260 ± 100 | 1210 ± 60 | 1180 ± 120 |  |  |  |  |  |  |  |  |  |  |
| O=C=O [carbon dioxide] |  |  |  |  |  |  |  |  |  | 870 ± 120 | 570 | 780 ± 20 | 850 ± 80 kg/m3 and 830 ± 60 kg/m3 | 890 ± 180 | 900 ± 200 | 820 ± 20 | 790 ± 20 | 760 ± 80 | 730 ± 140 |
